Assays:
[1] = Lipophilicity, log D of the compound at pH 7.4; type: physicochemical; conditions: buffer
[2] = test system: Liver microsome; assay: Intrinsic clearance in human liver microsomes; type: ADME

Row | logD [1] | CLint [2] | SMILES
1 | 2.7 | 26 µL/min/g | C=CC(=O)N1C[C@H](COc2nc(Nc3cnn(C)c3)nc3[nH]ccc23)[C@@H](C(F)(F)F)C1
2 | 2 | 12 µL/min/g | C=CC(=O)N1C[C@H](COc2nc(Nc3cnn(C)c3)nc3[nH]cc(Cl)c23)[C@@H](O)C1
3 | 3 | 11 µL/min/g | C=CC(=O)Nc1cccc(Oc2nc(Nc3ccn(C)n3)nc3[nH]ccc23)c1
4 | 2.9 | 23 µL/min/g | C=CC(=O)N1C[C@H](COC)[C@@H](COc2nc(Nc3cnn(C)c3)nc3[nH]cc(Cl)c23)C1
5 | 2.3 | 13 µL/min/g | C=CC(=O)N1C[C@H](CO)[C@@H](COc2nc(Nc3cnn(C)c3)nc3[nH]cc(Cl)c23)C1
6 | 3 | 37 µL/min/g | C=CC(=O)N1C[C@H](COc2nc(Nc3cnn(C)c3)nc3[nH]cc(Cl)c23)[C@@H](C(F)(F)F)C1
7 | 3 |  | C#CCCn1cc(Nc2nc(OC[C@H]3CN(C(=O)C=C)C[C@@H]3OC)c3c(Cl)c[nH]c3n2)cn1
8 | 2.91 | 45 µL/min/g | C=CC(=O)N1CC[C@@H](COc2nc(Nc3cnn(C)c3)nc3[nH]cc(Cl)c23)C1
9 | 3.2 | 66 µL/min/g | C=CC(=O)Nc1cccc(Oc2nc(Nc3cnn(C)c3)nc3[nH]ccc23)c1
10 | 2.4 | 24 µL/min/g | C=CC(=O)N1C[C@@H](COc2nc(Nc3cnn(C)c3)nc3[nH]cc(Cl)c23)[C@H](OC)C1
11 | 2.7 | 28 µL/min/g | C=CC(=O)N1C[C@H](COc2nc(Nc3cnn(C)c3)nc3[nH]cc(Cl)c23)[C@@H](F)C1
12 | 2.1 | 56 µL/min/g | C=CC(=O)N1CC[C@@H](COc2nc(Nc3cnn(C)c3)nc3[nH]ccc23)C1
13 | 4 |  | C#CCOc1cc2ncnc(Nc3ccc(F)c(Cl)c3)c2cc1NC(=O)C=C
14 | 2.7 | 20 µL/min/g | C=CC(=O)Nc1cccc(Oc2nc(Nc3ccc(N4CCN(C)CC4)cc3)nc3[nH]ccc23)c1
15 | 2.5 | 18 µL/min/g | C=CC(=O)N1C[C@H](COc2nc(Nc3cnn(C)c3)nc3[nH]cc(Cl)c23)[C@@H](OC)C1 [PF-06459988]

Reference: ChEMBL document CHEMBL3785081 (J Med Chem, 2016)
